Source: patent US10077261B2, “Imidazolin-5-one derivative useful as FASN inhibitors for the treatment of cancer” (Janssen Pharmaceutica NV, priority 2012, dated 2018)
pIC50: −log10 of the molar value.

How the values were obtained:
[1] = molecular target: T1, hFASN enzyme (full length) (Homo sapiens, UniProt P49327); assay: Fatty Acid Synthase (FASN) inhibition scintillation proximity assay; format: biochemical; conditions: for inhibition at 10 µM: read-out: Human FASN % inhibition @ 10 μM, 10 μM test compound; for IC50: read-out: Human FASN pIC50 (converted)
T1 construct: 10 μL hFASN enzyme (full length, 300 ng, purified in house); made in house
Outline: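 Proximity read-out: hydrophobic ^3H-palmitate formed from ^3H-acetyl-CoA and malonyl-CoA binds streptavidin imaging beads, imaged at 610±20 nm at least 24 h after stopping. Enzyme was in-house purified full-length hFASN, 300 ng, in pH 7.5 phosphate/DTT buffer; compound series 30 μM down to 0.01 μM, normalized to controls, 4-parameter fit.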

[2] = test system: PC-3M-Luc-C6 prostate cells; assay: In vitro PC-3M-Luc-C6 prostate cell proliferation assay in lipid reduced medium; format: cell-based; conditions: 96 h, read-out: pIC50 PC-3M-Luc-C6 prostate cell (converted)
[3] = test system: LNCaP-Vancouver prostate cells; assay: In vitro LNCaP Vancouver prostate cell proliferation assay in lipid reduced medium; format: cell-based; conditions: read-out: pIC50 LNCaP_Vancouver prostate cell (converted)
A2780 ovarian cells [4] = assay: A2780 ovarian cell proliferation assay in lipid reduced medium, with palmitate (MTT); format: cell-based; conditions: Homo sapiens, A2780, 96 h; read-out: pIC50 A2780 Ovarian Cell, With Palmitate (converted)
Outline: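 In this palmitate-supplemented format, compound dilutions (30 μM down to 0.01 μM) are added to cells in lipid-reduced serum with 25 μM palmitate, 0.2% fatty-acid-free BSA and 0.25% ethanol. After four days (96 h) MTT absorbance at 544 nm is recorded and fitted by minimum sum of squares.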

A2780 ovarian cells [5] = assay: A2780 ovarian cell proliferation assay in lipid reduced medium, without palmitate (MTT); format: cell-based; conditions: Homo sapiens, A2780, 96 h; read-out: pIC50 A2780 Ovarian Cell, Without Palmitate (converted)
[6] = molecular target: Fatty Acid Synthase Keto-reductase Domain (FASN KR) (Homo sapiens, UniProt P49327); assay: Fatty Acid Synthase keto-reductase domain (FASN KR) inhibition, NADPH oxidation at 340 nm
Chain of Fatty Acid Synthase Keto-reductase Domain (FASN KR) (P49327 whole entry, the tested form may be a part): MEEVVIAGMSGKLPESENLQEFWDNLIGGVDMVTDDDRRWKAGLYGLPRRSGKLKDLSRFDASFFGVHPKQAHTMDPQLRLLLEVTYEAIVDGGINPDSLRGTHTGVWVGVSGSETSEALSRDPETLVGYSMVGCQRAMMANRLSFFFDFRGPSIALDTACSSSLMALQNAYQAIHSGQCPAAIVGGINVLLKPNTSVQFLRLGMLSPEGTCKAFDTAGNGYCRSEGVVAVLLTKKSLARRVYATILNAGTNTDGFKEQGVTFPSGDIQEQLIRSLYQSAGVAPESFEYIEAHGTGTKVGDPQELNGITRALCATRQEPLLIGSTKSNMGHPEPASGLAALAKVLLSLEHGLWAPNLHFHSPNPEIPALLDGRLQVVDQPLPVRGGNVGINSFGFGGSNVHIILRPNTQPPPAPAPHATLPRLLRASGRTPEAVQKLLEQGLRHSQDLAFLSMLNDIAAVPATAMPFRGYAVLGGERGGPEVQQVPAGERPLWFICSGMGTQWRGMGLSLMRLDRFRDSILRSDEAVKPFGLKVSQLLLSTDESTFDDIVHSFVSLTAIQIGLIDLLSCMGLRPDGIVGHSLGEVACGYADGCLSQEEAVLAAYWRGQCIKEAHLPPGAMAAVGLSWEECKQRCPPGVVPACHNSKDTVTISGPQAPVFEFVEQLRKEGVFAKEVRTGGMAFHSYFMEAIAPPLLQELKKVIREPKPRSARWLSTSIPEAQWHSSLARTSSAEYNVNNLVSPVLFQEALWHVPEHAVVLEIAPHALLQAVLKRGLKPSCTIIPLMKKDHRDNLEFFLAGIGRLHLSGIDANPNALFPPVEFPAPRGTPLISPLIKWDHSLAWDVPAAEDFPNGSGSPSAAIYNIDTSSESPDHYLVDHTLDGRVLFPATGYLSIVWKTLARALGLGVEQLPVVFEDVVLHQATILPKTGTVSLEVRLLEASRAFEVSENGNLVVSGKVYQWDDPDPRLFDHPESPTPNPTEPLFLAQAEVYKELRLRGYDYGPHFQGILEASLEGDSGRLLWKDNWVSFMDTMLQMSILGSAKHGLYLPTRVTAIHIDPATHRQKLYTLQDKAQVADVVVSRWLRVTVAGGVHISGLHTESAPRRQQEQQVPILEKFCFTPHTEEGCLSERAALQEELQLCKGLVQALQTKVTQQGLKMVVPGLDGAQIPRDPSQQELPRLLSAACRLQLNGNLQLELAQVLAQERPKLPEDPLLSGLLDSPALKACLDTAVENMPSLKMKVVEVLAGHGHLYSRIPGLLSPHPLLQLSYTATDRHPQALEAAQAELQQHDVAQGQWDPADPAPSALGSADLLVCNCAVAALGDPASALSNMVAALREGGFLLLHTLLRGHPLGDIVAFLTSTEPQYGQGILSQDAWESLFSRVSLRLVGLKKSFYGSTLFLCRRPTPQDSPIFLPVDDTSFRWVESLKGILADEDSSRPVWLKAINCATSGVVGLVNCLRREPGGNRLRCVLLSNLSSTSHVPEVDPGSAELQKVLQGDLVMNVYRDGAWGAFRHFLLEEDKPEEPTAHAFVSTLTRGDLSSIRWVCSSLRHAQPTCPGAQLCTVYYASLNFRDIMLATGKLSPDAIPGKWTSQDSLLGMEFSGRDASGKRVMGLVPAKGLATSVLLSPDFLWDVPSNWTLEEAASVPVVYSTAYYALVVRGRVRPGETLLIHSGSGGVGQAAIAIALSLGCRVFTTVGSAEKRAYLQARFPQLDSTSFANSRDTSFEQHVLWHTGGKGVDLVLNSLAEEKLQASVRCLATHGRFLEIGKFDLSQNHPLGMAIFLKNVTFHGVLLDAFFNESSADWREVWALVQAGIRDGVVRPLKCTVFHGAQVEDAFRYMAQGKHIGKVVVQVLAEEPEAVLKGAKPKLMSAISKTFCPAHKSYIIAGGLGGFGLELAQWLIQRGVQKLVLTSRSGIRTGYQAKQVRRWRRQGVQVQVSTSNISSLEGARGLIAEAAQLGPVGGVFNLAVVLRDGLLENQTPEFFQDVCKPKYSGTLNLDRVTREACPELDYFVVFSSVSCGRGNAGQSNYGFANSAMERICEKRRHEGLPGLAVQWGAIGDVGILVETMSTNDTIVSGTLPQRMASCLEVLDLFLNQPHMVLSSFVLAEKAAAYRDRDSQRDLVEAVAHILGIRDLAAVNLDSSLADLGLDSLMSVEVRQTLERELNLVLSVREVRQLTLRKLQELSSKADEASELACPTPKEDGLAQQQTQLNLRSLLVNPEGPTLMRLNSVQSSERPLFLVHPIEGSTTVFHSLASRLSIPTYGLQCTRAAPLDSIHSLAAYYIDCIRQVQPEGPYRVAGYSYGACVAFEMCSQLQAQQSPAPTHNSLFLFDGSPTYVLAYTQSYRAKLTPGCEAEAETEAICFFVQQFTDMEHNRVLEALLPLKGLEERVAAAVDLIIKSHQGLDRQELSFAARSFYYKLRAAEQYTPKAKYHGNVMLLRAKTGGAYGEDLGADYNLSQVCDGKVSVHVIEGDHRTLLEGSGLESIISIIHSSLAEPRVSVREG
Protocol: After 20 minutes incubation at room temperature the plate was measured again (T2).
The decrease in absorbance was calculated as (Absorbance before incubation T1)−(Absorbance following incubation T2).
A plot of Controlmin versus test compound concentration was fitted to a 4-parameter logistic curve using a non-linear least squares regression method.

T1 sequence (P49327 whole entry): as the sequence (P49327 whole entry, the tested form may be a part) above

inhibition at 10 µM [1]	IC50 [1]	IC50 [2]	IC50 [3]	IC50 (A2780 ovarian cells [4])	IC50 (A2780 ovarian cells [5])	pIC50 [6]	Human FASN pIC50 ([1]; hFASN enzyme full length, scintillation proximity assay, "~" = standard error of pIC50 larger than 0.5)	FASN Keto-reductase Domain pIC50 ([6]; NADPH oxidation, absorbance at 340 nm, ethyl acetoacetate substrate)	Compound
93%	0.38 µM	0.575 µM	1.55 µM	> 10 µM	0.295 µM	6.11			Cn1nccc1-c1ccc(-c2ccc(C3=NC4(CC4)C(=O)N3CC3CN(C(=O)C4(C)CC4)C3)c(F)c2)cc1 [compound 566, 5-[3-Fluoro-4′-(1-methyl-1H-pyrazol-5-yl)biphenyl-4-yl]-6-({1-[(1-methylcyclopropyl)carbonyl]azetidin-3-yl}methyl)-4,6-diazaspiro[2.4]hept-4-en-7-one]
97%	0.0263 µM	~0.00309 µM	0.0123 µM	> 10 µM	0.0017 µM	7.29			Cc1cc(-c2ccc(-c3cnn(C)c3)cc2)ccc1C1=NC2(CC2)C(=O)N1C[C@@H]1CCN(C(=O)C2(C)CC2)C1 [compound 267]
95%	0.251 µM	0.417 µM	1.82 µM	> 10 µM	~0.209 µM	6.25			Cc1cc(C2=NC3(CC3)C(=O)N2C[C@@H]2CCN(C(=O)C3CC3)C2)ccc1-c1ccc2[nH]ncc2c1 [compound 444, 6-{[(3R)-1-(Cyclopropylcarbonyl)pyrrolidin-3-yl]methyl}-5-[4-(1H-indazol-5-yl)-3-methylphenyl]-4,6-diazaspiro[2.4]hept-4-en-7-one]
96%	0.0631 µM	0.0407 µM	0.282 µM	> 10 µM	0.0288 µM	7.06			Cn1cnc2cc(-c3ccc(C4=NC5(CC5)C(=O)N4CC4CN(C(=O)C5CC5)C4)c(F)c3)ccc21 [compound 348, 6-((1-(cyclopropanecarbonyl)azetidin-3-yl)methyl)-5-(2-fluoro-4-(1-methyl-1H-benzo[d]imidazol-5-yl)phenyl)-4,6-diazaspiro[2.4]hept-4-en-7-one]
96%	0.0851 µM	0.0575 µM	0.631 µM	> 10 µM	~0.0741 µM	6.89			COCCN1CCC2(CC1)N=C(c1ccc(-c3ccc4[nH]ccc4c3)cc1)N(C[C@@H]1CCN(C(=O)C3CC3)C1)C2=O [compound 747, 3-{[(3R)-1-(Cyclopropylcarbonyl)pyrrolidin-3-yl]methyl}-2-[4-(1H-indol-5-yl)phenyl]-8-(2-methoxyethyl)-1,3,8-triazaspiro[4.5]dec-1-en-4-one]
98%	0.229 µM	~2.57 µM	3.47 µM	> 10 µM	0.794 µM	5.95			COc1ccc2ccc(-c3ccc(C4=NC5(CC5)C(=O)N4CC4CN(C(=O)C5CC5)C4)c(F)c3)cc2c1 [compound 618, 6-{[1-(Cyclopropylcarbonyl)azetidin-3-yl]methyl}-5-[2-fluoro-4-(7-methoxynaphthalen-2-yl)phenyl]-4,6-diazaspiro[2.4]hept-4-en-7-one]
101%		~0.0245 µM	0.0661 µM	> 10 µM	~0.0132 µM		7.55	7.27	Cn1cc(-c2ccc(-c3ccc(C4=NC5(CC5)C(=O)N4C[C@@H]4CCN(C(=O)C5CC5)C4)cc3)cc2)cn1 [compound 65, (R)-6-((1-(Cyclopropanecarbonyl)pyrrolidin-3-yl)methyl)-5-(4′-(methyl-1H-pyrazol-4-yl)-[1,1′-biphenyl]-4-yl)-4,6-diazaspiro[2.4]hept-4-en-7-one]
99%	0.0389 µM	~0.0525 µM	0.155 µM	8.71 µM	0.0537 µM	7.28			O=C(C1CC1)N1CC[C@@H](CN2C(=O)C3(CC3)N=C2c2ccc(-c3ccc4cccc(F)c4c3)cc2)C1 [compound 313, (R)-6-((1-(cyclopropanecarbonyl)pyrrolidin-3-yl)methyl)-5-(4-(8-fluoronaphthalen-2-yl)phenyl)-4,6-diazaspiro[2.4]hept-4-en-7-one]
100%	0.0631 µM	0.166 µM	0.832 µM	5.25 µM	0.0724 µM	~6.07			O=C(N1CC(CN2C(=O)C3(CC3)N=C2c2ccc(-c3ccc4ccc(F)cc4c3)cc2F)C1)C1(O)CC1 [compound 384, 5-(2-fluoro-4-(7-fluoronaphthalen-2-yl)phenyl)-6-((1-(1-hydroxycyclopropanecarbonyl)azetidin-3-yl)methyl)-4,6-diazaspiro[2.4]hept-4-en-7-one]
108%	0.0417 µM	0.0195 µM	0.102 µM	> 10 µM	~0.0158 µM	7.12			Cc1cc(-c2ccc(-c3cnn(C)c3)cc2)ccc1C1=NC2(CC2)C(=O)N1C[C@@H]1CCN(C(=O)C2CC2)C1 [compound 316, (R)-6-((1-(cyclopropanecarbonyl)pyrrolidin-3-yl)methyl)-5-(3-methyl-4′-(1-methyl-1H-pyrazol-4-yl)-[1,1′-biphenyl]-4-yl)-4,6-diazaspiro[2.4]hept-4-en-7-one]
100%	0.049 µM	0.234 µM	0.692 µM	> 10 µM	0.302 µM	7.16			O=C(C1CC1)N1CC[C@@H](CN2C(=O)C3(CC3)N=C2c2ccc(-c3cccc4ncccc34)cc2F)C1 [compound 250, (R)-6-((1-(cyclopropanecarbonyl)pyrrolidin-3-yl)methyl)-5-(2-fluoro-4-(quinolin-5-yl)phenyl)-4,6-diazaspiro[2.4]hept-4-en-7-one]
101%	0.0251 µM	0.00832 µM	0.0331 µM	> 10 µM	~0.00288 µM	7.35			Cn1cc(-c2ccc(-c3ccc(C4=NC5(CC5)C(=O)N4C[C@@H]4CCN(C(=O)C5CC5)C4)c(F)c3)cc2)cn1 [compound 323, (R)-6-((1-(cyclopropanecarbonyl)pyrrolidin-3-yl)methyl)-5-(3-fluoro-4′-(1-methyl-1H-pyrazol-4-yl)-[1,1′-biphenyl]-4-yl)-4,6-diazaspiro[2.4]hept-4-en-7-one]
95%	0.0468 µM	~0.112 µM	0.355 µM	> 10 µM	0.115 µM	7.12			Cc1[nH]c2ccc(-c3ccc(C4=NC5(CC5)C(=O)N4C[C@@H]4CCN(C(=O)C5CC5)C4)cc3)cc2c1C [compound 213, (R)-6-((1-(cyclopropanecarbonyl)pyrrolidin-3-yl)methyl)-5-(4-(2,3-dimethyl-1H-indol-5-yl)phenyl)-4,6-diazaspiro[2.4]hept-4-en-7-one]
